Measurements taken from the Deep4Chem optical property database.
Where “and” joins values, the source holds several entries; their conditions need not be identical. Equal values may be shown once.

Assay: solvent given as SMILES

`N#Cc1c(-n2c3ccc(Br)cc3c3cc(Br)ccc32)c(C#N)c(-n2c3ccc(Br)cc3c3cc(Br)ccc32)c(-n2c3ccc(Br)cc3c3cc(Br)ccc32)c1-n1c2ccc(Br)cc2c2cc(Br)ccc21` showed an absorption maximum (in Cc1ccccc1) of 374 nm.
`Cc1cc(C)c([B-]2(c3c(C)cc(C)cc3C)[O+]=P(c3ccccc3)(c3ccccc3)c3cc(-c4ccc(C(F)(F)F)cc4)sc3-c3sc(-c4ccc(C(F)(F)F)cc4)cc32)c(C)c1` showed an absorption maximum (in C1CCOC1) of 405 nm.
`CCC(CC)COC1=CC2=C3c4cc(OCC(CC)CC)c(-c5cccs5)n4[B-](F)(F)[n+]4nnn(c43)[B-](F)(F)[N+]2=C1c1cccs1` showed an absorption maximum (in C1CCOC1) of 784 nm and an absorption maximum (in ClCCl) of 795 nm.
Compound `Cc1nc2cccc(-c3nc4ccc([N+](=O)[O-])cc4[nH]3)c2c(=O)[nH]1` has an absorption maximum (in CN(C)C=O) of 310 nm.
`CCOC(=O)C(Cc1ccc(O[Si]2(Oc3ccc(CC(NC(C)=O)C(=O)OCC)cc3)n3c4c5ccccc5c3/N=C3N=C(/N=c5/c6ccccc6/c(n52)=N/C2=NC(=N\4)/c4ccccc42)c2ccccc2\3)cc1)NC(C)=O` (stereo not given) showed an absorption maximum (in CN(C)C=O) of 681 nm.
In the case of `N#Cc1cc(N2c3ccccc3Sc3ccccc32)c(N2c3ccccc3Sc3ccccc32)cc1C#N`, the absorption maximum (in c1ccc2c(c1)c1ccccc1n2-c1ccc(-c2ccc(-n3c4ccccc4c4ccccc43)cc2)cc1) is reported as 551 nm.
In the case of `CCCCC1(CCCC)c2cc(C#Cc3ccc(C=C(c4ccccc4)c4ccccc4)cc3)ccc2-c2ccc(C#Cc3ccc(C=C(c4ccccc4)c4ccccc4)cc3)cc21`, the absorption maximum (in C1CCOC1) is reported as 376 nm.
For `CC(C)(C)c1ccc2c(c1)c1cc(C(C)(C)C)ccc1n2-c1ccc(N(c2ccc(-c3ccc(-c4ccc(-c5ccc(-c6ccc(-c7ccc(N(c8ccc(-n9c%10ccc(C(C)(C)C)cc%10c%10cc(C(C)(C)C)ccc%109)cc8)c8ccc(-n9c%10ccc(C(C)(C)C)cc%10c%10cc(C(C)(C)C)ccc%109)cc8)cc7)s6)s5)s4)s3)cc2)c2ccc(-n3c4ccc(C(C)(C)C)cc4c4cc(C(C)(C)C)ccc43)cc2)cc1`, the absorption maximum (in ClCCl) was 450 nm.
With `Fc1ccc(-c2cccc3ncc(-c4ccccc4)n23)cc1` the absorption maximum (in ClCCl) was 336 nm.
For `COc1ccc(-c2c3cc4ccccc4cc3c(-c3ccc(OC)cc3)c3cc4sc(C)cc4cc23)cc1`, the absorption maximum (in ClCCl) was 550 nm.
`CC1=CC(C)=[N+]2C1=C(c1ccc(Br)cc1)c1c(C)cc(/C=C/c3ccc[nH]3)n1[B-]2(F)F` showed an absorption maximum (in ClCCl) of 590 nm.
With `CCCCCCCCCCCCOc1cc2c3cc(OCCCCCCCCCCCC)c(OCCCCCCCCCCCC)cc3c3c(cc(OCCCCCCCCCCCC)c4nc5cc(C#Cc6ccc(OCCCC)cc6)c(C#Cc6ccc(OCCCC)cc6)cc5nc43)c2cc1OCCCCCCCCCCCC` the absorption maximum (in ClC(Cl)Cl) was 485 nm.
With `Cc1ccc(C#Cc2c3cc4ccccc4cc3c(C#C[Si](C(C)C)(C(C)C)C(C)C)c3cc4ccccc4cc23)cc1` the absorption maximum (in ClCCl) was 654 nm.
Compound `COC(=O)/C(C#N)=c1\s/c(=c2/s/c(=C(/C#N)C(=O)OC)c3cc(-c4ccc(F)cc4)sc23)c2sc(-c3ccc(F)cc3)cc12` has an absorption maximum (in Cc1ccccc1) of 602 nm.
With `COc1ccc(-c2cc3c(o2)=CC2=Cc4cc5oc(-c6ccc(OC)cc6)cc5n4[B-](F)(F)[N+]=32)cc1` the absorption maximum (in ClC(Cl)Cl) was 673 nm and 672 nm.
For `Cc1ccc([N+]2=c3c4n(c5ccccc35)[B-](F)(F)[N+](c3ccc(C)cc3)=c3c=4n(c4ccccc34)[B-]2(F)F)cc1`, the absorption maximum (in ClCCl) was 743 nm.
In the case of `CC(C)(C)c1cc(C(C)(C)C)c2oc3c(c2c1)C=CN1C(=O)C2=C4c5oc6c(C(C)(C)C)cc(C(C)(C)C)cc6c5C=CN4C(=O)C2=C31`, the absorption maximum (in CN(C)C=O) is reported as 645 nm and the absorption maximum (in ClC(Cl)Cl) is reported as 643 nm.
For `COc1cccc2cc(C)c3c4ccccc4[nH]c3c12`, the absorption maximum (in ClCCl) was 360 nm.
`CCN(CC)c1ccc(OC)c(C=O)c1` gave an absorption maximum (in CC#N) of 412 nm, an absorption maximum (in CC(C)O) of 418 nm and an absorption maximum (in CCCCCC) of 400 nm. The absorption maximum (in CCOC(C)=O) was 406 nm, the absorption maximum (in CO) was 420 nm and the absorption maximum (in CS(C)=O) was 424 nm. The absorption maximum (in Cc1ccccc1) was 411 nm and the absorption maximum (in ClCCl) was 415 nm.
`CC(C)(C)[Si](C)(C)C#CC1=CC2=c3cc(C#C[Si](C)(C)C(C)(C)C)c4nc(C(F)(F)C(F)(F)C(F)(F)F)nc5c(C#C[Si](C)(C)C(C)(C)C)cc(c3c54)C3=CC(C#C[Si](C)(C)C(C)(C)C)=C4N=C(C(F)(F)C(F)(F)C(F)(F)F)N=C1C4C32` (stereo not given) showed an absorption maximum (in C1CCOC1) of 513 nm.
`CN(C)c1ccc(/C=C/c2cc(/C=C/c3ccc(N(C)C)cc3)nc(/C=C/c3ccccc3)n2)cc1` showed an absorption maximum (in ClCCl) of 423 nm.
Compound `CCC1(CC)c2cc(C=C(C#N)C#N)ccc2-c2ccc(N(C)C)cc21` has an absorption maximum (in C1CCCCC1) of 480 nm, an absorption maximum (in CC#N) of 474 nm and an absorption maximum (in CCO) of 478 nm. It also gave an absorption maximum (in CCOCC) of 470 nm, an absorption maximum (in CS(C)=O) of 490 nm and an absorption maximum (in ClCCl) of 490 nm. The absorption maximum (in c1ccccc1) was 480 nm.
Compound `CC[N+]1(CC)CN2C(=N1)C(C(=O)O)=Cc1cc(C)ccc12` has an absorption maximum (in O) of 379 nm.
`CCCCN1\C(=C/C=C/C=C/C2=[N+](CCCC)c3ccc4cc(Br)ccc4c3C2(C)C)C(C)(C)c2c1ccc1cc(Br)ccc21` gave an absorption maximum (in C1CCOC1) of 685 nm, an absorption maximum (in CC#N) of 682 nm and an absorption maximum (in CC(C)=O) of 685 nm. For the same compound, the absorption maximum (in CCO) was 688 nm, the absorption maximum (in CN(C)C=O) was 689 nm and the absorption maximum (in CO) was 683 nm. It also gave an absorption maximum (in CS(C)=O) of 692 nm and an absorption maximum (in ClCCl) of 699 nm.
In the case of `O=C(c1cc(F)c(N2CCOCC2)cc1F)c1cc(F)c(N2CCOCC2)cc1F`, the absorption maximum (in CCO) is reported as 342 nm.
Work on `CCOC(=O)c1sc2nc(C)c(CC)c(C#N)c2c1N` yielded an absorption maximum (in c1ccccc1) of 412 nm.
`O=C1OC(=O)C2=C1[Se][C@]13C2=C[C@H](c2ccccc21)c1ccccc13` showed an absorption maximum (in ClCCl) of 421 nm.
With `CC1CC(C)(C)N(C)c2ccc(/C=C/c3ccc(/C=C(\C#N)C(=O)O)s3)cc21` (stereo not given) the absorption maximum (in ClCCl) was 525 nm.
`CC1(C)c2ccccc2N(c2ccc3c(c2)C(c2ccccc2)(c2ccccc2)c2cc(N4c5ccccc5C(C)(C)c5ccccc54)ccc2S3(=O)=O)c2ccccc21` gave an absorption maximum (in Cc1ccccc1) of 364 nm.
Work on `CCN(CC)c1ccc2cc(C#N)/c(=N\C(=O)c3ccc(C)cc3)oc2c1` yielded an absorption maximum (in CCO) of 430 nm and an absorption maximum (in ClCCl) of 436 nm.
Work on `CC(C)[Si]1(C(C)C)c2ccccc2-c2ccc(N(C)C)cc21` yielded an absorption maximum (in C1CCCCC1) of 323 nm, an absorption maximum (in CC#N) of 321 nm and an absorption maximum (in CCO) of 319 nm. It also gave an absorption maximum (in CCOCC) of 318 nm, an absorption maximum (in CS(C)=O) of 324 nm and an absorption maximum (in ClCCl) of 323 nm. The absorption maximum (in c1ccccc1) was 323 nm.
`C(=C\c1ncc2ccccc2n1)/c1ccc(N(c2ccccc2)c2ccccc2)cc1` gave an absorption maximum (in ClCCl) of 400 nm.
Compound `CCOC(=O)/C(C)=C/C1=C(c2ccc(C)cc2)C2=Nc3c(-c4ccc(C)cc4)c(-c4ccc(OC)cc4)c(-c4ccc(C)cc4)n3[B-](F)(F)[N+]2=C1c1ccc(C)cc1` has an absorption maximum (in ClC(Cl)Cl) of 670 nm.
In the case of `c1ccc(Cc2c3ccc(=[N+]4CCCCC4)cc-3oc3cc(N4CCCCC4)ccc23)cc1`, the absorption maximum (in ClCCl) is reported as 566 nm.
For `CN(c1ccccc1)c1ccc(/C=C2\C(=O)c3ccccc3S2(=O)=O)cc1`, the absorption maximum (in C1CCOC1) was 468 nm, the absorption maximum (in C1COCCO1) was 466 nm and the absorption maximum (in CC#N) was 471 nm. It also gave an absorption maximum (in CC(C)=O) of 470 nm, an absorption maximum (in CCOC(C)=O) of 465 nm and an absorption maximum (in CN(C)C=O) of 478 nm. For the same compound, the absorption maximum (in CO) was 475 nm, the absorption maximum (in CS(C)=O) was 483 nm and the absorption maximum (in Cc1ccccc1) was 472 nm. The absorption maximum (in ClC(Cl)Cl) was 479 nm and the absorption maximum (in ClCCl) was 476 nm.
In the case of `CC(C)(C)c1ccc(C2=C(c3ccc(-n4c5ccc(C(C)(C)C)cc5c5cc(C(C)(C)C)ccc54)cc3)S(=O)(=O)c3c2sc(-c2ccc(-n4c5ccc(C(C)(C)C)cc5c5cc(C(C)(C)C)ccc54)cc2)c3-c2ccc(C(C)(C)C)cc2)cc1`, the absorption maximum (in C1CCOC1) is reported as 429 nm.
For `c1ccc(-n2c3ccccc3c3cc(-c4ccn5nc(-c6ccc(-n7c8ccccc8c8ccccc87)cc6)nc5c4)ccc32)cc1`, the absorption maximum (in C1CCOC1) was 341 nm.
In the case of `O=c1oc2c(ccc3ccccc32)nc1-c1ccccc1`, the absorption maximum (in CC#N) is reported as 396 nm, the absorption maximum (in CCCCCC) is reported as 398 nm and the absorption maximum (in CO) is reported as 396 nm. For the same compound, the absorption maximum (in c1ccccc1) was 396 nm.
In the case of `CCCCCCCCCCCCOc1ccc(C#Cc2ccc(C#Cc3ccc(OCCCCCCCCCCCC)c(OCCCCCCCCCCCC)c3)c3nc4c5ccccc5c5ccccc5c4nc23)cc1OCCCCCCCCCCCC`, the absorption maximum (in C1CCOC1) is reported as 461 nm, the absorption maximum (in Cc1ccccc1) is reported as 461 nm and the absorption maximum (in ClCCl) is reported as 461 nm.
`Cc1ccc(O)c(-c2[nH]c(=O)n3c2-c2ccccc2C3=O)c1` showed an absorption maximum (in CC#N) of 394 nm, an absorption maximum (in CO) of 399 nm and an absorption maximum (in ClCCl) of 393 nm.
Compound `COc1ccc(-c2c3cc4cc(C)sc4cc3c(C#Cc3ccccc3)c3cc4cc(C)sc4cc23)cc1` has an absorption maximum (in ClCCl) of 539 nm.
`COc1ccccc1-c1nc2c3cccnc3c3ncccc3c2n1-c1ccccc1` gave an absorption maximum (in Cc1ccccc1) of 363 nm.
Work on `CCSSCC` yielded an absorption maximum (in CCCCCC) of 250 nm.
`COCCC1=Cc2nc1ccc1[nH]c(cc1CCOC)c1nc(ccc3[nH]c2cc3CCO)C(CCOC)=C1` gave an absorption maximum (in Cc1ccccc1) of 637 nm.
In the case of `c1ccc(-c2nnc(-c3ccc(-n4c5ccccc5c5ccccc54)cc3)o2)cc1`, the absorption maximum (in Cc1ccccc1) is reported as 340 nm.
`CC1=C(c2cccs2)C(C)=[N+]2C1=C(c1ccc(O)cc1)c1c(C)c(-c3cccs3)c(C)n1[B-]2(F)F` showed an absorption maximum (in CO) of 521 nm, an absorption maximum (in Cc1ccccc1) of 530 nm and an absorption maximum (in ClCCl) of 528 nm.
`O=[N+]([O-])c1ccc(-n2c3ccccc3c3c2c2ccccc2n3-c2ccccc2)cc1` showed an absorption maximum (in Cc1ccccc1) of 418 nm.
`CC1=C2C=CC=[N+]2[B-](F)(F)n2cccc21` showed an absorption maximum (in CCCCCC) of 500 nm, an absorption maximum (in CO) of 494 nm and an absorption maximum (in ClCCl) of 499 nm.
For `COc1cccc(-c2nc3sc4ccccc4c3s2)c1`, the absorption maximum (in CS(C)=O) was 350 nm.
`Cc1c(C)n2c(COC(=O)CNC(=O)OC(C)(C)C)c(C)c(=O)n2c1=O` gave an absorption maximum (in CCO) of 374 nm.
Compound `Cc1ccc(-c2ccc(-c3ccc(C)cc3)c(/C(=C(/c3ccccc3)c3cc(-c4ccc(C)cc4)ccc3-c3ccc(C)cc3)c3ccccc3)c2)cc1` has an absorption maximum (in C1CCOC1) of 282 nm.
For `N#Cc1ccc(-n2c(-c3ccc(-c4ccc(-c5nc6c7ccccc7c7ccccc7c6n5-c5ccc(C#N)c6ccccc56)cc4)cc3)nc3c4ccccc4c4ccccc4c32)c2ccccc12`, the absorption maximum (in ClCCl) was 340 nm.
Compound `CC[N+]1(CC)CN2C(C)=CC(C)=C(C(=O)O)C2=N1` has an absorption maximum (in CN(C)C=O) of 346 nm and an absorption maximum (in O) of 343 nm.
For `O=Cc1cc2c(cc3ccc4cccc5ccc2c3c45)[nH]1`, the absorption maximum (in CCOC(C)=O) was 416 nm.
